Test results taken from PubChem BioAssay (NCI).
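Method: 48-hour compound exposure of cells in 96-well plates, five concentrations, linear interpolation of endpoints. GI50 = concentration required for 50% inhibition of growth. TGI: total growth inhibition.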

Experiments:
Test in all cases: NCI tumour cell line growth inhibition, 48 h
[1] = tested on: DU-145 prostate
[2] = tested on: SK-MEL-28 melanoma
[3] = tested on: SR leukemia
[4] = tested on: HS 578T breast
[5] = tested on: RPMI-8226 leukemia
[6] = tested on: HT29 colon
[7] = tested on: HOP-92 NSCLC
[8] = tested on: NCI-H460 lung
[9] = tested on: EKVX NSCLC
[10] = tested on: BT-549 breast
[11] = tested on: UACC-257 melanoma
[12] = tested on: MOLT-4 leukemia
[13] = tested on: SF-268 CNS
[14] = tested on: COLO 205 colon
[15] = tested on: SK-MEL-5 melanoma
[16] = tested on: MDA-MB-435
[17] = tested on: SNB-75 CNS
[18] = tested on: SNB-19 CNS
[19] = tested on: MCF7 breast
[20] = tested on: NCI-H522 lung
[21] = tested on: ACHN renal
[22] = tested on: OVCAR-4 ovarian
[23] = tested on: IGROV1 ovarian
[24] = tested on: M14 melanoma
[25] = tested on: SF-295 CNS
[26] = tested on: HOP-62 NSCLC
[27] = tested on: T-47D breast
[28] = tested on: RXF 393 renal
[29] = tested on: UACC-62 melanoma
[30] = tested on: OVCAR-3 ovarian
[31] = tested on: HCT-116 colon
[32] = tested on: OVCAR-5 ovarian
[33] = tested on: MALME-3M melanoma
[34] = tested on: NCI/ADR-RES ovarian
[35] = tested on: HL-60(TB) leukemia
[36] = tested on: NCI-H226 lung
[37] = tested on: OVCAR-8 ovarian
[38] = tested on: HCT-15 colon
[39] = tested on: SW-620 colon
[40] = tested on: CAKI-1 renal
[41] = tested on: 786-0 renal
[42] = tested on: SK-OV-3 ovarian
[43] = tested on: UO-31 renal
[44] = tested on: LOX IMVI melanoma
[45] = tested on: KM12 colon
[46] = tested on: SK-MEL-2 melanoma
[47] = tested on: A498 renal
[48] = tested on: SN12C renal
[49] = tested on: PC-3 prostate
[50] = tested on: A549 NSCLC
[51] = tested on: HCC-2998 colon
[52] = tested on: U251 CNS
[53] = tested on: NCI-H23 lung
[54] = tested on: CCRF-CEM leukemia
[55] = tested on: SF-539 CNS
[56] = tested on: MDA-MB-231 breast
[57] = tested on: TK-10 renal
[58] = tested on: K-562 leukemia

Which results are given for O=S(=O)(c1ccc(Cl)cc1)C(Cl)(Cl)Cl?
GI50 [1]: 2.09 µM; TGI [1]: 10 µM; GI50 [2]: 4.47 µM; TGI [2]: 24 µM; GI50 [3]: 0.486 µM; TGI [3]: 39.7 µM; GI50 [4]: 2.27 µM; TGI [4]: 29.2 µM; GI50 [5]: 3.35 µM; TGI [5]: > 52.9 µM; GI50 [6]: 2.85 µM; TGI [6]: 22.5 µM; GI50 [7]: 1.71 µM; TGI [7]: 23.2 µM; GI50 [8]: 3.79 µM; TGI [8]: 17 µM; GI50 [9]: 4.68 µM; TGI [9]: > 21.4 µM; GI50 [10]: 1.4 µM; TGI [10]: 7.48 µM; GI50 [11]: 2.1 µM; TGI [11]: 11.8 µM; GI50 [12]: 0.91 µM; TGI [12]: > 44.3 µM; GI50 [13]: 1.56 µM; TGI [13]: 20.6 µM; GI50 [14]: 3.38 µM; TGI [14]: > 53.4 µM; GI50 [15]: 3.02 µM; TGI [15]: 12.1 µM; GI50 [16]: 0.908 µM; TGI [16]: 4.7 µM; GI50 [17]: 2.34 µM; TGI [17]: 20.3 µM; GI50 [18]: 15.2 µM; TGI [18]: > 78.1 µM; GI50 [19]: 2.72 µM; TGI [19]: > 100 µM; GI50 [20]: 2.95 µM; TGI [20]: 21 µM; GI50 [21]: 1.43 µM; TGI [21]: > 100 µM; GI50 [22]: 2.23 µM; TGI [22]: > 63.3 µM; GI50 [23]: 3.08 µM; TGI [23]: 23.5 µM; GI50 [24]: 1.63 µM; TGI [24]: 4.32 µM; GI50 [25]: 5.3 µM; TGI [25]: 23 µM; GI50 [26]: 8.12 µM; TGI [26]: > 49.5 µM; GI50 [27]: 1.39 µM; TGI [27]: > 33.1 µM; GI50 [28]: 1.47 µM; TGI [28]: 8.91 µM; GI50 [29]: 4.75 µM; TGI [29]: 25 µM; GI50 [30]: 0.886 µM; TGI [30]: 4.45 µM; GI50 [31]: 2.43 µM; TGI [31]: 11.3 µM; GI50 [32]: 12.7 µM; TGI [32]: 69.6 µM; GI50 [33]: 0.244 µM; TGI [33]: 3.89 µM; GI50 [34]: 1.57 µM; TGI [34]: > 24.5 µM; GI50 [35]: 1.8 µM; TGI [35]: 7.7 µM; GI50 [36]: 4.86 µM; TGI [36]: 21.9 µM; GI50 [37]: 3.5 µM; TGI [37]: 35.5 µM; GI50 [38]: 1.19 µM; TGI [38]: > 100 µM; GI50 [39]: 2.58 µM; TGI [39]: 11.7 µM; GI50 [40]: 0.251 µM; TGI [40]: 0.879 µM; GI50 [41]: 0.968 µM; TGI [41]: 18.1 µM; GI50 [42]: 14 µM; TGI [42]: 67 µM; GI50 [43]: 0.298 µM; TGI [43]: 11.5 µM; GI50 [44]: 1.77 µM; TGI [44]: 6.58 µM; GI50 [45]: 3.27 µM; TGI [45]: 13.9 µM; GI50 [46]: 3.05 µM; TGI [46]: 19.9 µM; GI50 [47]: 1.15 µM; TGI [47]: 13 µM; GI50 [48]: 3.54 µM; TGI [48]: 30.3 µM; GI50 [49]: 4.73 µM; TGI [49]: > 62.5 µM; GI50 [50]: 3.46 µM; TGI [50]: > 50 µM; GI50 [51]: 1.42 µM; TGI [51]: 5.87 µM; GI50 [52]: 3.96 µM; TGI [52]: 21.1 µM; GI50 [53]: 2.69 µM; TGI [53]: 17.7 µM; GI50 [54]: 1.62 µM; TGI [54]: > 32.6 µM; GI50 [55]: 3.17 µM; TGI [55]: 29 µM; GI50 [56]: 3.85 µM; TGI [56]: 23 µM; GI50 [57]: 9.56 µM; TGI [57]: > 75.1 µM; GI50 [58]: 1.6 µM; TGI [58]: > 100 µM

What does the source list for CN1CCN(C(=O)c2cc(-c3ccc4ncnc(N5CCc6cc(F)c(Cl)cc65)c4c3)cnc2N)CC1?
GI50 [1]: 0.214 µM; TGI [1]: 11.3 µM; GI50 [2]: 0.24 µM; TGI [2]: 3.61 µM; GI50 [3]: 0.137 µM; GI50 [4]: 0.116 µM; TGI [4]: 0.491 µM; GI50 [5]: 0.124 µM; TGI [5]: 0.557 µM; GI50 [6]: 0.216 µM; TGI [6]: 4.57 µM; GI50 [7]: 0.154 µM; TGI [7]: 1.08 µM; GI50 [8]: 0.224 µM; TGI [8]: 9.14 µM; GI50 [9]: 0.232 µM; TGI [9]: 1.55 µM; GI50 [10]: 0.181 µM; TGI [10]: 1.57 µM; GI50 [11]: 0.334 µM; TGI [11]: 3.52 µM; GI50 [12]: 0.127 µM; TGI [12]: 0.664 µM; GI50 [13]: 0.216 µM; TGI [13]: 2.32 µM; GI50 [14]: 0.446 µM; TGI [14]: 3.5 µM; GI50 [15]: 0.209 µM; TGI [15]: 0.476 µM; GI50 [16]: 0.201 µM; TGI [16]: 1.2 µM; GI50 [17]: 0.0512 µM; TGI [17]: 0.704 µM; GI50 [18]: 0.413 µM; TGI [18]: 10.5 µM; GI50 [19]: 0.0992 µM; TGI [19]: 1.89 µM; GI50 [20]: 0.346 µM; TGI [20]: 3.22 µM; GI50 [21]: 0.27 µM; TGI [21]: 5.78 µM; GI50 [22]: 0.3 µM; TGI [22]: 4.22 µM; GI50 [23]: 0.0467 µM; TGI [23]: 0.595 µM; GI50 [24]: 0.338 µM; TGI [24]: 4.75 µM; GI50 [25]: 0.288 µM; TGI [25]: 1.84 µM; GI50 [26]: 0.244 µM; TGI [26]: 4.46 µM; GI50 [27]: 0.0651 µM; TGI [27]: 1.84 µM; GI50 [28]: 0.0922 µM; TGI [28]: 0.48 µM; GI50 [29]: 0.177 µM; TGI [29]: 0.67 µM; GI50 [30]: 0.248 µM; TGI [30]: 1.49 µM; GI50 [31]: 0.237 µM; TGI [31]: 2.89 µM; GI50 [32]: 0.29 µM; TGI [32]: 13.8 µM; GI50 [33]: 0.123 µM; TGI [33]: 0.843 µM; GI50 [34]: 0.723 µM; TGI [34]: 10.2 µM; GI50 [35]: 0.0535 µM; TGI [35]: 0.409 µM; GI50 [36]: 0.309 µM; TGI [36]: 2.76 µM; GI50 [37]: 0.29 µM; TGI [37]: 24.1 µM; GI50 [38]: 0.251 µM; TGI [38]: 2.63 µM; GI50 [39]: 0.315 µM; TGI [39]: 1.82 µM; GI50 [40]: 0.165 µM; TGI [40]: 1.21 µM; GI50 [41]: 0.22 µM; TGI [41]: 1.73 µM; GI50 [42]: 0.382 µM; TGI [42]: 2.21 µM; GI50 [43]: 0.0996 µM; TGI [43]: 4.42 µM; GI50 [44]: 0.192 µM; TGI [44]: 1.44 µM; GI50 [45]: 0.312 µM; TGI [45]: 1.83 µM; GI50 [46]: 0.238 µM; TGI [46]: 1.02 µM; GI50 [47]: 0.104 µM; TGI [47]: 0.361 µM; GI50 [48]: 0.15 µM; TGI [48]: 10.5 µM; GI50 [49]: 0.176 µM; TGI [49]: 3.78 µM; GI50 [50]: 0.194 µM; TGI [50]: 1.8 µM; GI50 [51]: 0.242 µM; TGI [51]: 1.65 µM; GI50 [52]: 0.348 µM; TGI [52]: 5.71 µM; GI50 [53]: 0.31 µM; TGI [53]: 5.66 µM; GI50 [54]: 0.266 µM; TGI [54]: 4.92 µM; GI50 [55]: 0.264 µM; TGI [55]: 1.44 µM; GI50 [56]: 0.444 µM; TGI [56]: 3.12 µM; GI50 [57]: 0.178 µM; TGI [57]: 1.45 µM; GI50 [58]: 0.234 µM; TGI [58]: 11.7 µM
